Test results taken from US20240246942A1, “KINASE INHIBITORS FOR THE TREATMENT OF NEURODEGENERATIVE DISEASES” (priority 2020, published 2024).

Columns and labels:
Assay in all cases: biochemical
[1] = target: T1, panel of 374 wild-type kinases (Homo sapiens, UniProt Q96L34); details: read-out: % Enzyme Activity (relative to DMSO controls), MARK4
T1 construct: purchased Reaction Biology Corporation
T1 sequence (Q96L34 1-752): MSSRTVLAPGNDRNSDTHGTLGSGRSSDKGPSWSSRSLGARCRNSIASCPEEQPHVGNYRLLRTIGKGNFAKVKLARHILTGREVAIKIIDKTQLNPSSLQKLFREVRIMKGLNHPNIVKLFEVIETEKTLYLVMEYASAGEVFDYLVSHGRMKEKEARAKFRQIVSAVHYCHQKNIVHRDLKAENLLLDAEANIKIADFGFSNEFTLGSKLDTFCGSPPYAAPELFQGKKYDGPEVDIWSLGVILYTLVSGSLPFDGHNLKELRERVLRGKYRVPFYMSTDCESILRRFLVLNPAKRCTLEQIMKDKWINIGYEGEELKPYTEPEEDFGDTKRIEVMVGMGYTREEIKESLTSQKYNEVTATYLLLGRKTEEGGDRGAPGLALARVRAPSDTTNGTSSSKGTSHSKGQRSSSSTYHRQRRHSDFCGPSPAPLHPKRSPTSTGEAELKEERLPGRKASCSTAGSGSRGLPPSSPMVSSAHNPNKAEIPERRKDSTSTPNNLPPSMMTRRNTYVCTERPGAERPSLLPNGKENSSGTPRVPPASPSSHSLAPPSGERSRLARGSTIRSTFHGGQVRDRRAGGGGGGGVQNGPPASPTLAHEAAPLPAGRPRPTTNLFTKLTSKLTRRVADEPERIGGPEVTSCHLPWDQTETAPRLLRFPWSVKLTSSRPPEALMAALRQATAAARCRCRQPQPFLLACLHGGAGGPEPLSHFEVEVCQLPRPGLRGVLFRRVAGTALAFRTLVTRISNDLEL

[2] = target: T2, panel of 374 wild-type kinases (Homo sapiens, UniProt P05771); details: read-out: % Enzyme Activity (relative to DMSO controls), kinase PKCb1
T2 construct: purchased Reaction Biology Corporation
T2 sequence (P05771 whole entry): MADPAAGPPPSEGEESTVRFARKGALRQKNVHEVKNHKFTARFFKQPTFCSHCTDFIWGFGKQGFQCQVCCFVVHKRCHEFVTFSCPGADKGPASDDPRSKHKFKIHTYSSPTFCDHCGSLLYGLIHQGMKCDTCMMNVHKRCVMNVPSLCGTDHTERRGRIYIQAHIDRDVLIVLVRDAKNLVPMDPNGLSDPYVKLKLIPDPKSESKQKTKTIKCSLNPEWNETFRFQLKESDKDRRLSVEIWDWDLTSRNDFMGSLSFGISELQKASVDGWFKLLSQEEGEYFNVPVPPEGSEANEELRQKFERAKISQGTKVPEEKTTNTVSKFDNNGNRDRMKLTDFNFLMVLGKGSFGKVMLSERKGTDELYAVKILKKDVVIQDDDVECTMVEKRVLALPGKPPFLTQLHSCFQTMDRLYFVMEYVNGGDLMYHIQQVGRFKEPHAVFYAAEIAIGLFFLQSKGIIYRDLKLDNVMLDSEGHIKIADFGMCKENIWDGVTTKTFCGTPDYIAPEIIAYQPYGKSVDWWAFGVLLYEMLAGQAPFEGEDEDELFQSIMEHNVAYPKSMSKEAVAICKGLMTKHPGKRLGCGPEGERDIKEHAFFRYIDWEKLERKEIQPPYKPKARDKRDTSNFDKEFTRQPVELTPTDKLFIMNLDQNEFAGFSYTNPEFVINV

[3] = target: T3, panel of 374 wild-type kinases (Homo sapiens, UniProt Q07002); details: read-out: % Enzyme Activity (relative to DMSO controls), CDK18/cyclin Y (PCTK3)
T3 construct: purchased Reaction Biology Corporation
T3 sequence (Q07002 whole entry): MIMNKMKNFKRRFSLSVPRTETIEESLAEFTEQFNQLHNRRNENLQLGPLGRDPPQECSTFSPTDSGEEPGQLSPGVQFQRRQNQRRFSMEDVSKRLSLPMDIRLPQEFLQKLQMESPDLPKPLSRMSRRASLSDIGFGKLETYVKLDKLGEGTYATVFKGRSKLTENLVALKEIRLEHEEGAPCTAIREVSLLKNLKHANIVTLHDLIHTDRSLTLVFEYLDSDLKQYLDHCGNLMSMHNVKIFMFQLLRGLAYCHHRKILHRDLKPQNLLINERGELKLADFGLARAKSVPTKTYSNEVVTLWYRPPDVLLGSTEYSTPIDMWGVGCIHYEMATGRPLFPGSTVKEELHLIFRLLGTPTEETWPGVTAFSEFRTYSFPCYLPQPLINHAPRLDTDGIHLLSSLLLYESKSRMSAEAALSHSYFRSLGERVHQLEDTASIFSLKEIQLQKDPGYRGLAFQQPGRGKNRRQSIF

[4] = target: T4, panel of 374 wild-type kinases (Homo sapiens, UniProt P49841); details: read-out: % Enzyme Activity (relative to DMSO controls), GSK3b
T4 construct: purchased Reaction Biology Corporation
T4 sequence (P49841 whole entry): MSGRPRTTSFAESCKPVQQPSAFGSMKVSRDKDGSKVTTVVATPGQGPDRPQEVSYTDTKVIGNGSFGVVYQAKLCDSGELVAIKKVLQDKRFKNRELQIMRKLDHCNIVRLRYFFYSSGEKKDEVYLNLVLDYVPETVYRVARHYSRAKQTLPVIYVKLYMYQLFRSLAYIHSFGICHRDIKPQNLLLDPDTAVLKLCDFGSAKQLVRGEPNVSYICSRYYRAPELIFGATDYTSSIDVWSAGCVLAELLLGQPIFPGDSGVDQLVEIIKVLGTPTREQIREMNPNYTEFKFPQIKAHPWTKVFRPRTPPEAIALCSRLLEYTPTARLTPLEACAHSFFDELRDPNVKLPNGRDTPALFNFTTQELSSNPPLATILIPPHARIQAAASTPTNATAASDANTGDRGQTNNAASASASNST

[5] = target: T5, panel of 374 wild-type kinases (Homo sapiens, UniProt Q15835); details: read-out: % Enzyme Activity (relative to DMSO controls), GRK1
T5 construct: purchased Reaction Biology Corporation
T5 sequence (Q15835 1-563): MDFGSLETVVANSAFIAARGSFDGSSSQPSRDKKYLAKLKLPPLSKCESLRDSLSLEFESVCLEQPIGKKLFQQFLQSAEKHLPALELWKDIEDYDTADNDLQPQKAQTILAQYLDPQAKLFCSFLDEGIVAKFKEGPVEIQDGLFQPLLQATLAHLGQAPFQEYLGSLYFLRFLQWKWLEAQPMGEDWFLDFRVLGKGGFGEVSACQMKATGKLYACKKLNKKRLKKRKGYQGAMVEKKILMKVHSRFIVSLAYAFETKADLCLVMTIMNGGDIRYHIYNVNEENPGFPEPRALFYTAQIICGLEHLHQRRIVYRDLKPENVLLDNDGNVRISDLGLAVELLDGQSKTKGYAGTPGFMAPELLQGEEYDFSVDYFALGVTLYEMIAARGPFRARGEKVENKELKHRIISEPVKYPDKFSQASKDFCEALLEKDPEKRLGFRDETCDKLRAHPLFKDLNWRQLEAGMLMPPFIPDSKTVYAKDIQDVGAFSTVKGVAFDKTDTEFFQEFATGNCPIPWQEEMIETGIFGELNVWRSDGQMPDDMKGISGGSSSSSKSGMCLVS

[6] = target: T6, panel of 374 wild-type kinases (Homo sapiens, UniProt O00311); details: read-out: % Enzyme Activity (relative to DMSO controls), CDC7/DBF4
T6 construct: purchased Reaction Biology Corporation
T6 sequence (O00311 whole entry): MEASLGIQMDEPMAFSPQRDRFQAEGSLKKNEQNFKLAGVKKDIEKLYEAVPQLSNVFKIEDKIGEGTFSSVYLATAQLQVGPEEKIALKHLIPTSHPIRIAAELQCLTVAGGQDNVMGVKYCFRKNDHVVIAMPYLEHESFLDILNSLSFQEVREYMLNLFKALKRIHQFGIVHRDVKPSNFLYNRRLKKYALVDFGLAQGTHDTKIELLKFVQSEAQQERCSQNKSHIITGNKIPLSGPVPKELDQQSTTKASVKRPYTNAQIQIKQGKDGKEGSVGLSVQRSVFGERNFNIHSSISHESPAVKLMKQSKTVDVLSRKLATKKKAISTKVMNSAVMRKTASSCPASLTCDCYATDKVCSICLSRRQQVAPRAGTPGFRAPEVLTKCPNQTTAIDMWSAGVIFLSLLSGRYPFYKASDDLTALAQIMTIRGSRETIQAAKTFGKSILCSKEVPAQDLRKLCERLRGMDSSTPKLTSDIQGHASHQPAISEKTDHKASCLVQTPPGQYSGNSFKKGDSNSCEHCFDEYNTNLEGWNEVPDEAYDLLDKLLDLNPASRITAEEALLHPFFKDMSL

[7] = target: T7, panel of 374 wild-type kinases (Homo sapiens, UniProt Q12866); details: read-out: % Enzyme Activity (relative to DMSO controls), c-MER
T7 construct: purchased Reaction Biology Corporation
T7 sequence (Q12866 21-999): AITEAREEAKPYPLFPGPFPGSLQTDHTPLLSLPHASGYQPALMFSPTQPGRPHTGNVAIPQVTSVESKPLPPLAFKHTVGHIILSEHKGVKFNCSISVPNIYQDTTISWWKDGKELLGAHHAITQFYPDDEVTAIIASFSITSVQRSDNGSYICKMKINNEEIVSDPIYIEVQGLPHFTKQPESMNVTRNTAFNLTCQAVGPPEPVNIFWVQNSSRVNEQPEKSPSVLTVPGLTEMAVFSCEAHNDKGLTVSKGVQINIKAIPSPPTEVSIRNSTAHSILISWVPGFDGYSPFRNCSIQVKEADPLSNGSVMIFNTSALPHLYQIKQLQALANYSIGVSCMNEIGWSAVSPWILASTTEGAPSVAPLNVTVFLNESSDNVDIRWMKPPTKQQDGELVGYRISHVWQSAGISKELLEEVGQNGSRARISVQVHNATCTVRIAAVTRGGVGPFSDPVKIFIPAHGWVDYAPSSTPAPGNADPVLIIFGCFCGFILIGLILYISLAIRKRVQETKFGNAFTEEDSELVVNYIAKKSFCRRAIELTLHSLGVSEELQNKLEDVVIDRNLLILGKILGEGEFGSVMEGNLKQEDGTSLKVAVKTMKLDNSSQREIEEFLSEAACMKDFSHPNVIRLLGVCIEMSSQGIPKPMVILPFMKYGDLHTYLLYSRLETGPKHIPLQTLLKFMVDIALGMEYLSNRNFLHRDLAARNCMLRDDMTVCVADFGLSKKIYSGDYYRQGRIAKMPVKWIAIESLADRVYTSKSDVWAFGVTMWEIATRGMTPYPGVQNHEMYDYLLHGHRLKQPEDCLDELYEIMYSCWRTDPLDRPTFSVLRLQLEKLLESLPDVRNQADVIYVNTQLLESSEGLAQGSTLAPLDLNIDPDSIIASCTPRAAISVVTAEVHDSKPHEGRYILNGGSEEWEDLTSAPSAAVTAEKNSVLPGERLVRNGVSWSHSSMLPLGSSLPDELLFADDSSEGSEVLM

Row | SMILES | remaining activity at 5 µM [1] [%] | remaining activity at 5 µM [2] [%] | remaining activity at 5 µM [3] [%] | remaining activity at 5 µM [4] [%] | remaining activity at 5 µM [5] [%] | remaining activity at 5 µM [6] [%] | remaining activity at 5 µM [7] [%] | remaining activity at 10 µM ([1]; 10 uM) [%] | remaining activity at 10 µM ([2]; 10 uM) [%] | remaining activity at 10 µM ([3]; 10 uM) [%] | remaining activity at 10 µM ([4]; 10 uM) [%] | remaining activity at 10 µM ([5]; 10 uM) [%] | remaining activity at 10 µM ([6]; 10 uM) [%] | remaining activity at 10 µM ([7]; 10 uM) [%]
1 | O=C(Nc1cnn(-c2csc(C(=O)NC3COC3)c2)c1)Nc1ccccc1Cl [Compound 17, 4-(4-(3-(2-chlorophenyl)ureido)-1H-pyrazol-1-yl)-N-(oxetan-3-yl)thiophene-2-carboxamide] | 108 | 102 | 101 | 95 | 91.9 | 111 | 92.7 | – | – | – | – | – | – | –
2 | Cc1sc(C(=O)NC2COC2)cc1-n1cc(NC(=O)Nc2c(F)cccc2Cl)cn1 [Compound 27, 4-(4-(3-(2-chloro-6-fluorophenyl)ureido)-1H-pyrazol-1-yl)-5-methyl-N-(oxetan-3-yl)thiophene-2-carboxamide] | – | – | – | – | – | – | – | 108 | 111 | 119 | 94.9 | 113 | 107 | 103
3 | O=C(Nc1cnn(-c2csc(C(=O)NC3COC3)c2)c1)Nc1c(F)cccc1Cl [Compound 25, 4-(4-(3-(2-chloro-6-fluorophenyl)ureido)-1H-pyrazol-1-yl)-N-(oxetan-3-yl)thiophene-2-carboxamide] | 97.9 | 100 | 91.9 | 95.7 | 92.9 | 84.3 | 77.1 | – | – | – | – | – | – | –
